Results as given in PubChem BioAssay AID256 (DTP/NCI, 2004).
Where “and” joins values, the source holds several entries; their conditions need not be identical. Equal entries are not always repeated. Toxic doses and inconclusive results are not listed. How the source made its calls: active means survival T/C of 150% or more; inactive means T/C below 125% in these data.

System: CD2F1 mice, L1210 leukemia ip, survival T/C
Assay: NCI In Vivo Anticancer Drug Screen. Data for tumor model L1210 Leukemia (intraperitoneal) in CD2F1 (CDF1) mice
Details: higher = longer survival
How it was run: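 Each value reflects a quotient of treated over vehicle control outcomes in mice with a transplanted tumor.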

[1] = endpoint: mean survival time, dose: 50.0 mg/kg/injection, schedule: Q01DX009 (ip), vehicle: saline with Tween-80
[2] = endpoint: mean survival time, dose: 100.0 mg/kg/injection, schedule: Q01DX009 (ip), vehicle: saline with Tween-80
[3] = endpoint: mean survival time, dose: 200.0 mg/kg/injection, schedule: Q01DX009 (ip), vehicle: saline with Tween-80
[4] = endpoint: mean survival time, dose: 12.5 mg/kg/injection, schedule: Q01DX009 (ip), vehicle: Klucel (hydroxypropylcellulose) (HPC)
[5] = endpoint: mean survival time, dose: 25.0 mg/kg/injection, schedule: Q01DX009 (ip), vehicle: Klucel (hydroxypropylcellulose) (HPC)
[6] = endpoint: mean survival time, dose: 50.0 mg/kg/injection, schedule: Q01DX009 (ip), vehicle: Klucel (hydroxypropylcellulose) (HPC)
[7] = endpoint: mean survival time, dose: 100.0 mg/kg/injection, schedule: Q01DX009 (ip), vehicle: Klucel (hydroxypropylcellulose) (HPC)
[8] = endpoint: mean survival time, dose: 12.5 mg/kg/injection, schedule: Q01DX009 (ip), vehicle: saline with Tween-80
[9] = endpoint: mean survival time, dose: 25.0 mg/kg/injection, schedule: Q01DX009 (ip), vehicle: saline with Tween-80
[10] = endpoint: mean survival time, dose: 100.0 mg/kg/injection, schedule: Q01DX009 (ip), vehicle: saline
[11] = endpoint: mean survival time, dose: 200.0 mg/kg/injection, schedule: Q01DX009 (ip), vehicle: saline
[12] = endpoint: mean survival time, dose: 400.0 mg/kg/injection, schedule: Q01DX009 (ip), vehicle: saline
[13] = endpoint: mean survival time, dose: 100.0 mg/kg/injection, schedule: Q04DX003 (ip), vehicle: saline with Tween-80
[14] = endpoint: mean survival time, dose: 200.0 mg/kg/injection, schedule: Q04DX003 (ip), vehicle: saline with Tween-80
[15] = endpoint: mean survival time, dose: 400.0 mg/kg/injection, schedule: Q04DX003 (ip), vehicle: saline with Tween-80
[16] = endpoint: mean survival time, dose: 12.5 mg/kg/injection, schedule: Q01DX009 (ip), vehicle: saline
[17] = endpoint: mean survival time, dose: 25.0 mg/kg/injection, schedule: Q01DX009 (ip), vehicle: saline
[18] = endpoint: mean survival time, dose: 50.0 mg/kg/injection, schedule: Q01DX009 (ip), vehicle: saline
[19] = endpoint: mean survival time, dose: 200.0 mg/kg/injection, schedule: Q01DX009 (ip), vehicle: Klucel (hydroxypropylcellulose) (HPC)
[20] = endpoint: mean survival time, dose: 100.0 mg/kg/injection, schedule: Q01DX001 (ip), vehicle: saline
[21] = endpoint: mean survival time, dose: 200.0 mg/kg/injection, schedule: Q01DX001 (ip), vehicle: saline
[22] = endpoint: mean survival time, dose: 400.0 mg/kg/injection, schedule: Q01DX009 (ip), vehicle: saline with Tween-80

Measured: T/C

CC/C=C\CC1OCCO1
inactive: [1] 95 % of control | [2] 92 % of control | [3] 95 % of control

CN1CCc2c(c3ccccc3c3ccccc23)C1
inactive: endpoint: mean survival time, dose: 3.12 mg/kg/injection, schedule: Q01DX009 (ip), vehicle: Klucel (hydroxypropylcellulose) (HPC) 104 % of control | endpoint: mean survival time, dose: 6.25 mg/kg/injection, schedule: Q01DX009 (ip), vehicle: Klucel (hydroxypropylcellulose) (HPC) 101 % of control | [4] 97 % of control | [5] 95 % of control | [6] 106 % of control | [7] 113 % of control

COC(=Nc1ccccc1)SSC(C)C
inactive: endpoint: mean survival time, dose: 6.25 mg/kg/injection, schedule: Q01DX009 (ip), vehicle: saline with Tween-80 93 % of control and 101 % of control | [8] 97 % of control and 108 % of control | [9] 98 % of control and 104 % of control | [1] 98 % of control and 108 % of control | [2] 106 % of control | [3] 108 % of control

OCC1(O)OCC(O)C(F)C1O (stereo not drawn)
inactive: [10] 96 % of control | endpoint: mean survival time, dose: 100.0 mg/kg/injection, schedule: Q04DX003 (ip), vehicle: saline 88 % of control | [11] 96 % of control | endpoint: mean survival time, dose: 200.0 mg/kg/injection, schedule: Q04DX003 (ip), vehicle: saline 89 % of control | [12] 94 % of control | endpoint: mean survival time, dose: 400.0 mg/kg/injection, schedule: Q04DX003 (ip), vehicle: saline 91 % of control

O=C=NC(c1ccccc1)(c1ccccc1)c1ccccc1
inactive: [13] 95 % of control and 99 % of control | [14] 103 % of control and 104 % of control | [15] 97 % of control

N#CC[CH2][Sn]([Br])([Br])[CH2]CC#N
inactive: endpoint: mean survival time, dose: 0.78 mg/kg/injection, schedule: Q01DX009 (ip), vehicle: saline 97 % of control | endpoint: mean survival time, dose: 1.56 mg/kg/injection, schedule: Q01DX009 (ip), vehicle: saline 94 % of control | endpoint: mean survival time, dose: 3.12 mg/kg/injection, schedule: Q01DX009 (ip), vehicle: saline 92 % of control and 98 % of control | endpoint: mean survival time, dose: 6.25 mg/kg/injection, schedule: Q01DX009 (ip), vehicle: saline 105 % of control and 107 % of control | [16] 94 % of control and 101 % of control and 107 % of control | [17] 95 % of control and 97 % of control | [18] 89 % of control

Cc1ccc(S(=O)(=O)NC(=O)C2C(=O)CC3(CCCCC3)CC2=O)cc1
inactive: endpoint: median survival time, dose: 50.0 mg/kg/injection, schedule: Q01DX009 (ip), vehicle: Klucel (hydroxypropylcellulose) (HPC) 100 % of control | endpoint: median survival time, dose: 100.0 mg/kg/injection, schedule: Q01DX009 (ip), vehicle: Klucel (hydroxypropylcellulose) (HPC) 102 % of control

CCCCCCCCCCCCCCCCNC(=O)C[N+](C)(C)Cc1ccccc1
inactive: endpoint: mean survival time, dose: 5.0 mg/kg/injection, schedule: Q04DX003 (ip), vehicle: saline with Tween-80 100 % of control | endpoint: mean survival time, dose: 10.0 mg/kg/injection, schedule: Q04DX003 (ip), vehicle: saline with Tween-80 101 % of control

CC(=O)NC(C)(NC(C)=O)C(=O)O
inactive: [6] 95 % of control | [7] 98 % of control | [19] 95 % of control

CCOC(=O)Nc1cc(NCCCCc2ccccc2)c2[nH]cnc2n1
inactive: endpoint: mean survival time, dose: 100.0 mg/kg/injection, schedule: Q01DX001 (ip), vehicle: Klucel (hydroxypropylcellulose) (HPC) 95 % of control | endpoint: mean survival time, dose: 200.0 mg/kg/injection, schedule: Q01DX001 (ip), vehicle: Klucel (hydroxypropylcellulose) (HPC) 93 % of control | endpoint: mean survival time, dose: 400.0 mg/kg/injection, schedule: Q01DX001 (ip), vehicle: Klucel (hydroxypropylcellulose) (HPC) 102 % of control

NCCCNCCSP(=O)(O)O
inactive: [8] 106 % of control | [16] 95 % of control | [9] 101 % of control | [17] 106 % of control | [1] 102 % of control | [18] 101 % of control | [2] 101 % of control | [10] 96 % of control | [3] 104 % of control | [11] 106 % of control | [12] 93 % of control

CC1(C)CCOC1=O
inactive: [20] 105 % of control | [21] 103 % of control | endpoint: mean survival time, dose: 400.0 mg/kg/injection, schedule: Q01DX001 (ip), vehicle: saline 103 % of control

Nc1cccc[n+]1CC(O)C(=O)[O-] (stereo not drawn)
inactive: endpoint: mean survival time, dose: 50.0 mg/kg/injection, schedule: Q01DX001 (ip), vehicle: saline 107 % of control | [20] 98 % of control | [21] 101 % of control

Cc1c(O)c2c(c(O)c1Cc1cccc(C#N)c1)C(=O)c1ccccc1C2=O
inactive: [4] 89 % of control | [5] 90 % of control | [6] 90 % of control | [19] 89 % of control

C=CCS(=O)(=O)Cc1ccc([N+](=O)[O-])cc1
inactive: endpoint: mean survival time, dose: 100.0 mg/kg/injection, schedule: Q04DX002 (ip), vehicle: Klucel (hydroxypropylcellulose) (HPC) 105 % of control | endpoint: mean survival time, dose: 200.0 mg/kg/injection, schedule: Q04DX002 (ip), vehicle: Klucel (hydroxypropylcellulose) (HPC) 94 % of control | endpoint: mean survival time, dose: 400.0 mg/kg/injection, schedule: Q04DX002 (ip), vehicle: Klucel (hydroxypropylcellulose) (HPC) 105 % of control

CC1[N-]CCC[N-]CCC[N-]C(C)C2CCCC1[N-]2.[Ni+2].[O-][Cl+3]([O-])([O-])O (stereo not drawn)
inactive: endpoint: mean survival time, dose: 50.0 mg/kg/injection, schedule: Q04DX002 (ip), vehicle: saline with Tween-80 104 % of control | endpoint: mean survival time, dose: 100.0 mg/kg/injection, schedule: Q04DX002 (ip), vehicle: saline with Tween-80 101 % of control and 104 % of control | endpoint: mean survival time, dose: 200.0 mg/kg/injection, schedule: Q04DX002 (ip), vehicle: saline with Tween-80 93 % of control

COc1ccc2c(O)c(-c3ccc(OC)c(OC)c3)c(=O)oc2c1
inactive: [9] 96 % of control | [1] 103 % of control | [2] 106 % of control

CCOC(=O)/C(C)=C(/N)c1ccccc1
inactive: [13] 98 % of control | [14] 95 % of control | [15] 92 % of control

Cc1ccccc1CS
inactive: [2] 93 % of control | [13] 103 % of control | [3] 94 % of control | [14] 100 % of control | [15] 104 % of control

CC(Br)C(=O)NC(Cc1ccccc1)C(=O)O (stereo not drawn)
inactive: [2] 101 % of control | [3] 97 % of control | [22] 97 % of control

CCCCOC(=O)CSSCC(=O)OCCCC
inactive: [1] 101 % of control | [2] 101 % of control | [3] 93 % of control

Clc1ccc(-c2nnc(-c3ccc(Cl)cc3)nn2)cc1
inactive: [13] 96 % of control | [14] 90 % of control | [15] 88 % of control

O/N=C\c1cccc2ccccc12
inactive: [13] 97 % of control | [14] 101 % of control

CC1CC[N-]CC1.CC1CC[N-]CC1.CC1CC[N-]CC1.CC1CC[N-]CC1.CS(C)=O.CS(C)=O.[Cl-].[Cl-].[Cl-].[Cl-].[Pt+4].[Rh+3]
inactive: endpoint: mean survival time, dose: 0.2 mg/kg/injection, schedule: Q01DX009 (ip), vehicle: water 97 % of control | endpoint: mean survival time, dose: 0.4 mg/kg/injection, schedule: Q01DX009 (ip), vehicle: water 92 % of control | endpoint: mean survival time, dose: 0.78 mg/kg/injection, schedule: Q04DX003 (ip), vehicle: Klucel (hydroxypropylcellulose) (HPC) 102 % of control | endpoint: mean survival time, dose: 0.8 mg/kg/injection, schedule: Q01DX009 (ip), vehicle: water 93 % of control | endpoint: mean survival time, dose: 1.5 mg/kg/injection, schedule: Q01DX009 (ip), vehicle: water 97 % of control | endpoint: mean survival time, dose: 1.56 mg/kg/injection, schedule: Q04DX003 (ip), vehicle: Klucel (hydroxypropylcellulose) (HPC) 98 % of control | endpoint: mean survival time, dose: 3.0 mg/kg/injection, schedule: Q01DX009 (ip), vehicle: water 92 % of control | endpoint: mean survival time, dose: 3.13 mg/kg/injection, schedule: Q04DX003 (ip), vehicle: Klucel (hydroxypropylcellulose) (HPC) 102 % of control | endpoint: mean survival time, dose: 6.25 mg/kg/injection, schedule: Q04DX003 (ip), vehicle: water 103 % of control

CCCCCCCCCCCCC(=O)N1CCOCC1
inactive: [2] 105 % of control | [3] 94 % of control | [22] 103 % of control

COC(=O)CCCCC(=O)OC
inactive: [13] 96 % of control | [14] 102 % of control | [15] 102 % of control

O=C(O)CCCCc1ccc([N+](=O)[O-])cc1
inactive: endpoint: mean survival time, dose: 100.0 mg/kg/injection, schedule: Q04DX002 (ip), vehicle: other 105 % of control | endpoint: mean survival time, dose: 200.0 mg/kg/injection, schedule: Q04DX002 (ip), vehicle: other 102 % of control | endpoint: mean survival time, dose: 400.0 mg/kg/injection, schedule: Q04DX002 (ip), vehicle: other 97 % of control
